# Measured values as given in patent publication US8076488B2, “Bicyclic urea derivatives useful in the treatment of cancer and other disorders” (Bayer Healthcare LLC, priority 2003, dated 2011).
# Target: T1, c-Raf kinase (Lck-activated c-Raf, Raf-1) (Homo sapiens, UniProt P04049)
# T1 construct: GST-c-Raf (from amino acid 302 to amino acid 648); made in house; host or cells: Sf9 insect cells (baculovirus; co-infection with full-length Lck)
# Test: c-Raf (Raf-1) biochemical assay (radioactive filtermat assay, MEK-1 substrate)
# Conditions: at 1 micromolar compound; 5 μM ATP, 32° C., 1 hour
# Protocol: Biological Tests c-Raf (Raf-1) Biochemical Assay Purification of Proteins Used in the Assay
# The c-Raf biochemical assay was performed with a c-Raf enzyme that was activated (phosphorylated) by Lck kinase. Lck-activated c-Raf (Lck/c-Raf) was produced in Sf9 insect cells by co-infecting cells with baculoviruses expressing, under the control of the polyhedrin promoter, GST-c-Raf (from amino acid 302 to amino acid 648) and Lck (full-length). Both baculoviruses were used at the multiplicity of infection of 2.5 and the cells were harvested 48 hours post infection.
# MEK-1 protein was produced in Sf9 insect cells by infecting cells with the baculovirus expressing GST-MEK-1 (full-length) fusion protein at the multiplicity of infection of 5 and harvesting the cells 48 hours post infection. Similar purification procedure was used for GST-c-Raf 302-648 and GST-MEK-1.
# Transfected cells were suspended at 100 mg of wet cell biomass per mL in a buffer containing 10 mM sodium phosphate, 140 mM sodium chloride pH 7.3, 0.5% Triton X-100 and the protease inhibitor cocktail. The cells were disrupted with Polytron homogenizer and centrifuged 30,000 g for 30 minutes. The 30,000 g supernatant was applied onto GSH-Sepharose. The resin was washed with a buffer containing 50 mM Tris, pH 8.0, 150 mM NaCl and 0.01% Triton X-100. The GST-tagged proteins were eluted with a solution containing 100 mM Glutathione, 50 mM Tris, pH 8.0, 150 mM NaCl and 0.01% Triton X-100. The purified proteins were dialyzed into a buffer containing 20 mM Tris, pH 7.5, 150 mM NaCl and 20% Glycerol.
# Biochemical Assay Protocol and Results
# The compounds were serially diluted in DMSO using three-fold dilutions to stock concentrations ranging typically from 50 μM to 20 nM (final concentrations in the assay range from 1 μM to 0.4 nM). The c-Raf biochemical assay was performed as a radioactive filtermat assay in 96-well Costar polypropylene plates (Costar 3365). The plates were loaded with 75 μL solution containing 50 mM HEPES pH 7.5, 70 mM NaCl, 80 ng of Lck/c-Raf and 1 μg MEK-1. Subsequently, 2 μL of the serially diluted individual compounds were added to the reaction, prior to the addition of ATP. The reaction was initiated with 25 μL ATP solution containing 5 μM ATP and 0.3 μCi [33P]-ATP. The plates were sealed and incubated at 32° C. for 1 hour. The reaction was quenched with the addition of 50 μl of 4% Phosphoric Acid and harvested onto P30 filtermats (PerkinElmer) using a Wallac Tomtec Harvester. Filtermats were washed with 1% Phosphoric Acid first and deinonized H2O second. The filters were dried in a microwave, soaked in scintillation fluid and read in a Wallac 1205 Betaplate Counter (Wallac Inc., Atlanta, Ga., U.S.A.). The results were expressed as percent inhibition. % Inhibition=[[…]]×100 where • Tib=(counts per minute with inhibitor)−(background) • Ti=(counts per minute without inhibitor)−(background)
# T1 sequence (P04049 302-648): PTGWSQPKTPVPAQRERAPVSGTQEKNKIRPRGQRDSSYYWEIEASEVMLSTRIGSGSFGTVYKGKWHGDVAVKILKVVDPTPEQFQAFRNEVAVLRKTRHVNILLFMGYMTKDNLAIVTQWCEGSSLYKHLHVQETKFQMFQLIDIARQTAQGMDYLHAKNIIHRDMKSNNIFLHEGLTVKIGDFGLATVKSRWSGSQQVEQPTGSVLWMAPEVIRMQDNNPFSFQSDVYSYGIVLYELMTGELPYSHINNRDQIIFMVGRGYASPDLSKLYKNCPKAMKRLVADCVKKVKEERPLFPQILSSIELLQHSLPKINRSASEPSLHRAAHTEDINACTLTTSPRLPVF
row,inhibition at 1 µM [%],SMILES
1,> 40,Cn1ncc2cc(NC(=O)Nc3ccc(Oc4ccnc(C(=O)NCCN5CCCC5)c4)cc3)ccc21 [Example 156]
2,> 40,Cn1ncc2cc(NC(=O)Nc3ccc(Oc4ccnc(C(=O)NCCN5CCNCC5)c4)cc3)ccc21 [Example 157]
3,> 40,O=C(Nc1ccc(Oc2ccnc(C(=O)NCCCn3ccnc3)c2)cc1)Nc1ccc2c(c1)OCCO2 [Example 158]
4,> 40,O=C(Nc1ccc(Oc2ccnc(C(=O)NCCN3CCCC3)c2)cc1)Nc1ccc2c(c1)OCCO2 [Example 159]
5,> 40,Cn1ncc2cc(NC(=O)Nc3ccc(Oc4ccnc(C(=O)NCCCn5ccnc5)c4)cc3)ccc21 [Example 160]
6,> 40,Cn1ncc2cc(NC(=O)Nc3ccc(Oc4ccnc(C(=O)NCCN5CCCCC5)c4)cc3)ccc21 [Example 161]
7,> 40,Cn1ncc2cc(NC(=O)Nc3ccc(Oc4ccnc(C(=O)NCC5CC5)c4)cc3)ccc21 [Example 162]
8,> 40,Cn1ncc2cc(NC(=O)Nc3ccc(Oc4ccnc(C(=O)NC5CCC5)c4)cc3)ccc21 [Example 163]
9,> 40,Cn1ncc2cc(NC(=O)Nc3cccc(Oc4ccnc(C(=O)NCCCn5ccnc5)c4)c3)ccc21 [Example 166]
10,> 40,O=C(Nc1cccc(Oc2ccnc(C(=O)NCCN3CCCC3)c2)c1)Nc1ccc2c(c1)C(F)(F)OC(F)(F)O2 [Example 168]
11,> 40,O=C(Nc1cccc(Oc2ccnc(C(=O)Nc3cccnc3)c2)c1)Nc1ccc2c(c1)C(F)(F)OC(F)(F)O2 [Example 169]
